Assays:
Assay in all cases: Alanyl-peptidase detection on agar medium (Example 13)
Format in all cases: cell-based
Conditions in all cases: 25 mg/l
Candida albicans = tested on: Candida albicans
Description: (§1) The detection media were prepared by mixing 3.6 g of biogelytone (bioMérieux), 2.16 g of meat extract (bioMérieux), 1.26 g of malt extract (bioMérieux), 5.76 g of NaCl (Merck) and 10.8 g of agar (bioMérieux).
(§2) 720 ml of osmosed water were added to the powder, and the mixture was then melted in a waterbath at […]. The product was separated into two flasks, each of 360 ml. Autoclaving was carried out at 121° C. for 15 min and the product was cooled to […]. in a waterbath.
(§3) L-Alanyl-7-amino-4-methylcoumarin (Ala-AMC, Bachem) was then added to the first flask as a control, at the final concentration of 50 mg/l, and L-alanyl-9-aminobenzo[a]phenoxazin-5-one (Ala-ABP, substrate of the invention obtained in Example 2, in which the amino acid is L-alanine), was then added to the second flask at the final concentration of 25 mg/l.
(§4) The size of the colonies, their coloration and also the intensity of this coloration were noted.

Staphylococcus aureus = tested on: Staphylococcus aureus
Description: as §1, §2, §3, §4

Escherichia coli = tested on: Escherichia coli
Description: as §1, §2, §3, §4

Enterococcus faecium = tested on: Enterococcus faecium
Description: as §1, §2, §3, §4

Salmonella typhimurium = tested on: Salmonella typhimurium
Description: as §1, §2, §3, §4

Streptococcus agalactiae = tested on: Streptococcus agalactiae
Description: as §1, §2, §3, §4

Listeria innocua = tested on: Listeria innocua
Description: as §1, §2, §3, §4

Candida krusei = tested on: Candida krusei
Description: as §1, §2, §3, §4

Pseudomonas aeruginosa = tested on: Pseudomonas aeruginosa; for color of the colony: key: B corresponds to fluorescent blue; R corresponds to pink
Description: as §1, §2, §3, §4

Proteus mirabilis = tested on: Proteus mirabilis
Description: as §1, §2, §3, §4

Enterobacter cloacae = tested on: Enterobacter cloacae
Description: as §1, §2, §3, §4

Hafnia alvei = tested on: Hafnia alvei
Description: as §1, §2, §3, §4

Candida glabrata = tested on: Candida glabrata
Description: as §1, §2, §3, §4

[1] = tested on: Staphylococcus saprophyticus
Description: as §1, §2, §3, §4

Edwardsiella tarda = tested on: Edwardsiella tarda
Description: as §1, §2, §3, §4

Bacillus subtilis = tested on: Bacillus subtilis
Description: as §1, §2, §3, §4

Streptococcus pyogenes = tested on: Streptococcus pyogenes
Description: as §1, §2, §3, §4

Serratia marcescens = tested on: Serratia marcescens
Description: as §1, §2, §3, §4

Acinetobacter baumanii = tested on: Acinetobacter baumanii
Description: as §1, §2, §3, §4

Saccharomyces cerevisiae = tested on: Saccharomyces cerevisiae
Description: as §1, §2, §3, §4

[2] = tested on: Corynebacterium Pseudodiphteriticum
Description: as §1, §2, §3, §4

Enterococcus faecalis = tested on: Enterococcus faecalis
Description: as §1, §2, §3, §4

[3] = tested on: Staphylococcus epidermidis
Description: as §1, §2, §3, §4

Serratia liquefaciens = tested on: Serratia liquefaciens
Description: as §1, §2, §3, §4

Klebsiella pneumoniae = tested on: Klebsiella pneumoniae
Description: as §1, §2, §3, §4

Q: Which growth diameter (Candida albicans; 24 h) does the source give for “L-alanyl-9-aminobenzo[a]phenoxazin-5-one [Ala-ABP]” here?
A: 0.3 mm

Q: What about the “color of the colony” value (Candida albicans; 48 h) of the same substance?
A: R

Q: What about the growth diameter (Candida albicans; 48 h) of the same substance?
A: 0.5 mm

Q: And the “intensity of coloration, scale 0 to 4” value (Candida albicans; 48 h)?
A: 2

Q: And the growth diameter (Staphylococcus aureus; 24 h)?
A: 0.1 mm

Q: And the growth diameter (Staphylococcus aureus; 48 h)?
A: 0.3 mm

Q: What about the “color of the colony” value (Escherichia coli; 24 h) of the same substance?
A: R

Q: And the growth diameter (Escherichia coli; 24 h)?
A: 1.7 mm

Q: What about the “intensity of coloration, scale 0 to 4” value (Escherichia coli; 24 h) of the same substance?
A: 1

Q: What about the “color of the colony” value (Escherichia coli; 48 h) of the same substance?
A: R

Q: And the growth diameter (Escherichia coli; 48 h)?
A: 1.8 mm

Q: What about the “intensity of coloration, scale 0 to 4” value (Escherichia coli; 48 h) of the same substance?
A: 1

Q: What about the growth diameter (Enterococcus faecium; 24 h) of the same substance?
A: 0.2 mm

Q: And the growth diameter (Enterococcus faecium; 48 h)?
A: 0.3 mm

Q: And the “color of the colony” value (Salmonella typhimurium; 24 h)?
A: R

Q: What about the growth diameter (Salmonella typhimurium; 24 h) of the same substance?
A: 1 mm

Q: What about the “intensity of coloration, scale 0 to 4” value (Salmonella typhimurium; 24 h) of the same substance?
A: 0.5

Q: What about the “color of the colony” value (Salmonella typhimurium; 48 h) of the same substance?
A: R

Q: And the growth diameter (Salmonella typhimurium; 48 h)?
A: 1.5 mm

Q: What about the “intensity of coloration, scale 0 to 4” value (Salmonella typhimurium; 48 h) of the same substance?
A: 1

Q: And the growth diameter (Streptococcus agalactiae; 24 h)?
A: 0.1 mm

Q: And the growth diameter (Streptococcus agalactiae; 48 h)?
A: 0.2 mm

Q: And the growth diameter (Listeria innocua; 24 h)?
A: 0.2 mm

Q: What about the growth diameter (Listeria innocua; 48 h) of the same substance?
A: 0.3 mm

Q: And the growth diameter (Candida krusei; 24 h)?
A: 0.5 mm

Q: What about the growth diameter (Candida krusei; 48 h) of the same substance?
A: 1 mm

Q: What about the “color of the colony” value (Pseudomonas aeruginosa; 24 h) of the same substance?
A: R

Q: And the growth diameter (Pseudomonas aeruginosa; 24 h)?
A: 0.3 mm

Q: What about the “intensity of coloration, scale 0 to 4” value (Pseudomonas aeruginosa; 24 h) of the same substance?
A: 1.7

Q: What about the “color of the colony” value (Pseudomonas aeruginosa; 48 h) of the same substance?
A: R

Q: What about the growth diameter (Pseudomonas aeruginosa; 48 h) of the same substance?
A: 0.5 mm

Q: And the “intensity of coloration, scale 0 to 4” value (Pseudomonas aeruginosa; 48 h)?
A: 3

Q: What about the “color of the colony” value (Proteus mirabilis; 24 h) of the same substance?
A: R

Q: And the growth diameter (Proteus mirabilis; 24 h)?
A: 1.7 mm

Q: What about the “intensity of coloration, scale 0 to 4” value (Proteus mirabilis; 24 h) of the same substance?
A: 0.5

Q: What about the “color of the colony” value (Proteus mirabilis; 48 h) of the same substance?
A: R

Q: And the growth diameter (Proteus mirabilis; 48 h)?
A: 1.7 mm

Q: And the “intensity of coloration, scale 0 to 4” value (Proteus mirabilis; 48 h)?
A: 1.5

Q: And the “color of the colony” value (Enterobacter cloacae; 24 h)?
A: R

Q: What about the growth diameter (Enterobacter cloacae; 24 h) of the same substance?
A: 0.7 mm

Q: What about the “intensity of coloration, scale 0 to 4” value (Enterobacter cloacae; 24 h) of the same substance?
A: 1.5

Q: And the “color of the colony” value (Enterobacter cloacae; 48 h)?
A: R

Q: And the growth diameter (Enterobacter cloacae; 48 h)?
A: 0.7 mm

Q: And the “intensity of coloration, scale 0 to 4” value (Enterobacter cloacae; 48 h)?
A: 2

Q: And the “color of the colony” value (Hafnia alvei; 24 h)?
A: R

Q: What about the growth diameter (Hafnia alvei; 24 h) of the same substance?
A: 0.5 mm

Q: What about the “intensity of coloration, scale 0 to 4” value (Hafnia alvei; 24 h) of the same substance?
A: 0.5

Q: And the “color of the colony” value (Hafnia alvei; 48 h)?
A: R

Q: What about the growth diameter (Hafnia alvei; 48 h) of the same substance?
A: 0.5 mm

Q: And the “intensity of coloration, scale 0 to 4” value (Hafnia alvei; 48 h)?
A: 1.5

Q: What about the growth diameter (Candida glabrata; 24 h) of the same substance?
A: 0.1 mm

Q: And the growth diameter (Candida glabrata; 48 h)?
A: 0.3 mm

Q: What about the growth diameter ([1]; 24 h) of the same substance?
A: 0.1 mm

Q: And the growth diameter ([1]; 48 h)?
A: 0.3 mm

Q: And the “color of the colony” value (Edwardsiella tarda; 24 h)?
A: R

Q: What about the growth diameter (Edwardsiella tarda; 24 h) of the same substance?
A: 0.5 mm

Q: And the “intensity of coloration, scale 0 to 4” value (Edwardsiella tarda; 24 h)?
A: 1

Q: And the “color of the colony” value (Edwardsiella tarda; 48 h)?
A: R

Q: And the growth diameter (Edwardsiella tarda; 48 h)?
A: 0.7 mm

Q: What about the “intensity of coloration, scale 0 to 4” value (Edwardsiella tarda; 48 h) of the same substance?
A: 3

Q: What about the growth diameter (Bacillus subtilis; 24 h) of the same substance?
A: 0.1 mm

Q: And the growth diameter (Bacillus subtilis; 48 h)?
A: 0.5 mm

Q: And the growth diameter (Streptococcus pyogenes; 24 h)?
A: 0.1 mm

Q: And the growth diameter (Streptococcus pyogenes; 48 h)?
A: 0.2 mm

Q: What about the “color of the colony” value (Serratia marcescens; 24 h) of the same substance?
A: R

Q: What about the growth diameter (Serratia marcescens; 24 h) of the same substance?
A: 0.5 mm

Q: What about the “intensity of coloration, scale 0 to 4” value (Serratia marcescens; 24 h) of the same substance?
A: 2

Q: What about the “color of the colony” value (Serratia marcescens; 48 h) of the same substance?
A: R

Q: What about the growth diameter (Serratia marcescens; 48 h) of the same substance?
A: 1 mm

Q: And the “intensity of coloration, scale 0 to 4” value (Serratia marcescens; 48 h)?
A: 3

Q: What about the “color of the colony” value (Acinetobacter baumanii; 24 h) of the same substance?
A: R

Q: And the growth diameter (Acinetobacter baumanii; 24 h)?
A: 1.7 mm

Q: What about the “intensity of coloration, scale 0 to 4” value (Acinetobacter baumanii; 24 h) of the same substance?
A: 3

Q: And the “color of the colony” value (Acinetobacter baumanii; 48 h)?
A: R

Q: And the growth diameter (Acinetobacter baumanii; 48 h)?
A: 1.7 mm

Q: And the “intensity of coloration, scale 0 to 4” value (Acinetobacter baumanii; 48 h)?
A: 3

Q: And the growth diameter (Saccharomyces cerevisiae; 24 h)?
A: 0 mm

Q: What about the growth diameter (Saccharomyces cerevisiae; 48 h) of the same substance?
A: 0.2 mm

Q: And the growth diameter ([2]; 24 h)?
A: 0 mm

Q: What about the growth diameter ([2]; 48 h) of the same substance?
A: 0 mm

Q: What about the growth diameter (Enterococcus faecalis; 24 h) of the same substance?
A: 0.3 mm

Q: And the growth diameter (Enterococcus faecalis; 48 h)?
A: 0.3 mm

Q: What about the growth diameter ([3]; 24 h) of the same substance?
A: 0.1 mm

Q: What about the growth diameter ([3]; 48 h) of the same substance?
A: 0.1 mm

Q: What about the “color of the colony” value (Serratia liquefaciens; 24 h) of the same substance?
A: R

Q: What about the growth diameter (Serratia liquefaciens; 24 h) of the same substance?
A: 0.7 mm

Q: What about the “intensity of coloration, scale 0 to 4” value (Serratia liquefaciens; 24 h) of the same substance?
A: 3

Q: What about the “color of the colony” value (Serratia liquefaciens; 48 h) of the same substance?
A: R

Q: What about the growth diameter (Serratia liquefaciens; 48 h) of the same substance?
A: 1.3 mm

Q: What about the “intensity of coloration, scale 0 to 4” value (Serratia liquefaciens; 48 h) of the same substance?
A: 3

Q: What about the “color of the colony” value (Klebsiella pneumoniae; 24 h) of the same substance?
A: R

Q: And the growth diameter (Klebsiella pneumoniae; 24 h)?
A: 1 mm

Q: And the “intensity of coloration, scale 0 to 4” value (Klebsiella pneumoniae; 24 h)?
A: 3

Q: What about the “color of the colony” value (Klebsiella pneumoniae; 48 h) of the same substance?
A: R

Q: And the growth diameter (Klebsiella pneumoniae; 48 h)?
A: 1.5 mm

Q: What about the “intensity of coloration, scale 0 to 4” value (Klebsiella pneumoniae; 48 h) of the same substance?
A: 3

From patent US7695930B2, “Method for the detection, identification and/or quantification of microoganisms with peptidase activity using phenoxazinone derivatives as enzyme substrates” (Biomerieux, priority 2003, dated 2010)
